Measurements as given in publication PMC11325505, “Nitrogen-Containing Flavonoids—Preparation and Biological Activity” (ACS Omega, 2024).
Values after ≈ are worked out from the molar mass of the structure shown. Like-named read-outs stand apart in the source and are kept apart here.

What was measured:
RAW 264.7 cells = test: Cellular antioxidant activity (CAA); type: cell-based, Murine; details: Mus musculus, RAW264.7, macrophages RAW 264.7; average of four repetitions ± standard error of the mean
Protocol: To evaluate the antioxidant activity of the prepared derivatives and the respective parent compounds, cellular antioxidant activity (CAA) was measured in macrophages. Compared to other in vitro antioxidant assays, this method provides partial information about the uptake and metabolism of the compounds, because, in this assay, they must first enter the cell to exert antioxidant activity.[31] […] Derivatization of quercetin at C-8 with 4-fluoroaniline (5) increased the antioxidant activity of quercetin by 1.7-fold. […] The concentration of these derivatives required to halve the cellular radicals decreased 1.5-fold compared to luteolin.
Cellular antioxidant capacity was evaluated as previously described.[31],[39] Briefly, 100 μL of RAW 264.7 cells with a density corresponding to 1 × 10^6 cells/mL were split into 96-well plates. After 24 h, cells were washed with PBS, and DMEM supplemented with DCFH-DA (0.0125 mg/mL) was added to each well together with the tested samples in the concentration range of 1.5–200 μM. After 1 h incubation in a CO2 incubator, the medium was replaced with AAPH solution (0.16 mg/mL in PBS), and fluorescence was immediately recorded (ex./em. 485/540 nm) for 2 h in 5 min intervals.

[1] = tested on: nitric oxide (NO) production by RAW 264.7 stimulated by LPS; test: Anti-inflammatory activity: NO production by LPS-stimulated macrophages; type: cell-based, Murine; details: Mus musculus, RAW264.7; LPS-stimulated RAW 264.7; average of four repetitions ± SEM
Protocol: (§1) The anti-inflammatory activity of flavonoids was evaluated as their ability to decrease the production of signaling molecules that mediate inflammation, such as nitric oxide (NO), tumor necrosis factor (TNF-α), and interleukin 6 (IL-6), in LPS-stimulated macrophages.
(§2) The anti-inflammatory activity of the tested flavonoids was determined as the ability to reduce the production of nitric oxide (NO), tumor necrosis factor (TNF-α), and interleukin 6 (IL-6) by RAW 264.7 stimulated by LPS, as previously described.[39],[40] Briefly, 1 × 10^6 cells/mL was seeded into the 96-well plate (100 μL/well). After 48 h, LPS (100 ng/mL) and the samples (3–100 μM) were added to the MEM medium. After 24 h, the medium was mixed with Griess reagent (0.04 g/mL) at a 1:1 ratio. The absorbance was measured after 15 min at 540 nm. Cell viability was determined using the resazurin assay.

[2] = tested on: interleukin 6 (IL-6) production by RAW 264.7 stimulated by LPS; test: Anti-inflammatory activity: IL-6 production by LPS-stimulated macrophages; type: cell-based, Murine; details: Mus musculus, RAW264.7; LPS-stimulated RAW 264.7; average of four repetitions ± SEM
Protocol: as §1, §2
(§3) To determine TNF-α levels, cells were precultivated with the tested compounds for 24 h. After 2 h of incubation with LPS, the medium was diluted 1:10 with ELISA diluent. To determine the level of IL-6, cells were cultivated for 6 h with LPS and the tested compounds. Cytokine production was determined using an uncoated ELISA performed according to the manufacturer’s instructions.

[3] = tested on: tumor necrosis factor (TNF-α) production by RAW 264.7 stimulated by LPS; test: Anti-inflammatory activity: TNF-α production by LPS-stimulated macrophages; type: cell-based, Murine; details: Mus musculus, RAW264.7; LPS-stimulated RAW 264.7; average of four repetitions ± SEM; read-out: TNFα production IC50
Protocol: as §1, §2, §3

[4] = tested on: immortalized human keratinocytes (HaCaT); test: Cytotoxicity (resazurin assay), keratinocytes; type: cell-based; details: 72 h incubation, resazurin, average of three repetitions ± SEM, read-out: HaCaT IC50 (concentration that halved the viability)
Protocol: (§4) The cytotoxicity of the prepared derivatives was evaluated by their ability to decrease the viability of immortalized human keratinocytes (HaCaT) and human dermal fibroblasts (HDF).
(§5) 100 μL of cell suspension containing 10^5 cells/mL was pipetted into a 96-well plate. After 24 h incubation, the tested compounds were added in the concentration range 12.5–200 μM. After 72 h incubation, the cell viability was tested by standard resazurin assay.[41] Briefly, the cells were washed with PBS and incubated with 100 μL of resazurin solution (0.025 mg/mL) for 2 h. The fluorescence was measured at a wavelength of 560 nm excitation/590 nm emission.

[5] = tested on: human dermal fibroblasts (HDF); test: Cytotoxicity (resazurin assay), fibroblasts; type: cell-based; details: 72 h incubation, resazurin, average of three repetitions ± SEM, read-out: HDF IC50 (concentration that halved the viability)
Protocol: as §4, §5

[6] = tested on: Staphylococcus aureus MRSA 9; test: Modulation of antibiotic-resistant phenotype (flavonoid plus breakpoint concentration of antibiotic); type: cell-based; details: for minimum inhibitory concentration (MIC) in the presence of erythromycin: erythromycin at breakpoint concentration 1 mg/L; for minimum inhibitory concentration (MIC) in the presence of erythromycin / minimum inhibitory concentration (MIC) in the presence of gentamicin: MIC determined as IC70, three repetitions ± SEM; for minimum inhibitory concentration (MIC) in the presence of gentamicin: gentamicin at breakpoint concentration 1 mg/L
Protocol: (§6) To evaluate the ability to modulate bacterial resistance, the tested flavonoids themselves cannot exert antimicrobial activity; therefore, the nontoxic concentration was used, as indicated in Table S5. Clinically relevant antibiotics were selected at breakpoint concentrations for susceptibility testing according to the European Committee on Antimicrobial Susceptibility Testing (EUCAST, version 11.0). […] Flavonoids and their derivatives (from 1 μM to the highest nontoxic concentration) were used in combination with the breakpoint concentration of the antibiotics. After coincubation, the minimum inhibitory concentration (MIC) of flavonoids inhibiting the visible growth of bacteria was determined (Table 2).
(§7) Sensitization of multidrug-resistant clinical bacterial strains was performed according to ref[15]. Antibiotic cutoff concentration was chosen according to the European Committee on Antimicrobial Susceptibility Testing (EUCAST, Clinical breakpoints–bacteria, ver. 11.0). The 200 μM concentration of the derivatives was chosen as the highest test concentration. The absorbance detected at 600 nm was then used to estimate the number of viable cells after 24 h of incubation at 37 °C and 120 rpm.
(§8) Experiments were performed with the respective number of replicates indicated in each figure/table. MIC was determined as IC70. Both IC70 and IC50 values were calculated using the following nonlinear regression in the software GraphPad Prism: […]

S. aureus CCM 4223 = test: Antibacterial activity, antibiotic-sensitive strain; type: cell-based; details: Staphylococcus aureus, CCM4223, three repetitions ± SEM
S. aureus MRSA 9 = test: Antibacterial activity, multidrug-resistant strain; type: cell-based; details: for IC50: Staphylococcus aureus, MRSA, multidrug-resistant strain, three repetitions ± SEM; for effect of the antibiotic alone on the multidrug-resistant clinical strain: breakpoint concentrations (1 mg/L)
Protocol: as §6, §7, §8

MRSA 3596 = test: Mode of antimicrobial action with erythromycin or gentamicin, ermA- and aadD-positive strain; type: cell-based, S. aureus; details: MRSA 3596 (aadD)
Excerpt: Erythromycin is a macrolide antibiotic that inhibits proteosynthesis by binding to the 50S subunit of the ribosome. In Staphylococcus species, resistance to erythromycin is associated with the presence of methyltransferases (encoded by erm genes) that alter the ribosomal target site. Another typical mechanism of resistance to erythromycin is the presence of an ATP-dependent efflux pump encoded by the msr(A) gene or a major facilitator superfamily (MFS) pump encoded by the lmrS gene. Both efflux pumps reduce the concentration of erythromycin in the cell below the therapeutic dose by transporting it across the membrane to the extracellular space. Another erythromycin resistance gene is the mph(C) gene, the product of which is a phosphotransferase that alters the structure of macrolide antibiotics. To elucidate the mechanism of erythromycin resistance modulation in S. aureus, further tests were performed with the strains MRSA 331 and MRSA 3596, which inactivate erythromycin via a single mechanism (ermC and ermA, respectively). […] Therefore, if the activity was not strain-specific, it would be necessary to consider the effect of the derivatives on this pump (Table 3).
(§9) Among the mechanisms of resistance to gentamicin previously described in S. aureus, the presence of enzymes that alter the structure of aminoglycosides is crucial. These enzymes can transfer nucleotides, phosphates, or acetyls to various −OH or −NH2 groups of gentamicin, preventing its subsequent interaction with the cellular target, i.e., the 30S ribosomal subunit. The bifunctional aminoglycoside-modifying enzyme with acetylation and phosphotransferase activities encoded by the gene aac(6’)/aph(2’), 4′,4″ adenyltransferase encoded by the aadD gene, and aminoglycoside O-phosphotransferase encoded by the gene aph(3′) are the most important.[37] […] For this reason, further testing continued using strains MRSA 3596 and MRSA 1584, which inactivate gentamicin only by a single mechanism (aadD and aac(6’)-aph(2’’), respectively).
as §7, §8

MRSA 1584 = test: Mode of antimicrobial action with gentamicin, aac(6')/aph(2')-positive strain; type: cell-based, Staphylococcus aureus
Excerpt: as §9, §7, §8

[7] = tested on: transmembrane efflux pumps; test: Ethidium bromide accumulation assay; type: cell-based, S. aureus MSSA 2; details: compared with comparator CCCP; concentrations 25–100 μM
Excerpt: The application of antibiotics often leads to oxidative stress in bacteria, which triggers the efflux pump systems that contribute to antimicrobial resistance.[34] Therefore, modulation of the efflux system has been proposed as another plausible target of derivatives. The efflux pump inhibitor carbonyl cyanide 3-chlorophenylhydrazone (CCCP) was used as a comparator in our assay. Its action destroys the proton-motive force at the membrane so that the efflux pump cannot transport substrates out of the cell. One such universal substrate is ethidium bromide, the accumulation of which in the cell can be measured using fluorescence.
The accumulation assay was performed according to previously published methods with minor modifications.[15],[42] Briefly, a bacterial culture of S. aureus MSSA 2 cultured overnight in the presence of colistin (4 mg/L) to induce oxidative stress and activate efflux system[34] was diluted in PBS to OD600 nm = 0.6. The suspension was centrifuged (13,000 × g; 3 min), resuspended in fresh PBS, and distributed into the wells of a black 96-well microtiter plate (ThermoFisher Scientific). Samples were diluted with EtBr solution (4 μg/mL). 50 μL of the mixture was added to 50 μL of the bacterial suspension. The reaction was monitored using SpectraMax iD5Multi-Mode Microplate Reader (ex/em = 530/600 nm) every 60 s for 60 min.

SMILES | IC50 (RAW 264.7 cells) [µM] | IC50 [1] [µM] | IC50 [2] [µM] | IC50 [3] [µM] | IC50 ([4]; Homo sapiens, HaCaT, 72 h) [µM] | IC50 ([5]; Homo sapiens, Fibroblast, 72 h) [µM] | minimum inhibitory concentration (MIC) in the presence of erythromycin [6] [µM] | minimum inhibitory concentration (MIC) in the presence of gentamicin [6] | IC50 (S. aureus CCM 4223) [µM] | IC50 (S. aureus MRSA 9) [µM] | also measured
COc1ccc(Nc2c(O)cc(O)c3c(=O)c(O)c(-c4ccc(O)c(O)c4)oc23)cc1 [compound 6, 2-(3,4-Dihydroxyphenyl)-8-(4-methoxyanilino)-3,5,7-trihydroxy-4H–1-benzopyran-4-one] | 7.5 ± 0.7 | 52.3 ± 2.3 | 32.3 ± 2.3 | > 50 | 45.2 ± 3.5 | 79.9 ± 1.5 | >200 | >200 ^note 2 μM | 44 ± 0.1 | 138 ± 1.2 | inhibition at 200 µM ([6]; Staphylococcus aureus, MRSA, with gentamicin 1 mg/L, maximum concentration used (200 μM), read-out: maximum concentration used inhibited bacterial growth to): 50.7%
CC[C@H]1OC(=O)[C@H](C)[C@@H](O[C@H]2C[C@@](C)(OC)[C@@H](O)[C@H](C)O2)[C@H](C)[C@@H](O[C@@H]2O[C@H](C)C[C@H](N(C)C)[C@H]2O)[C@](C)(O)C[C@@H](C)C(=O)[C@H](C)[C@@H](O)[C@]1(C)O [Erythromycin, reference compound] |  |  |  |  |  |  |  |  |  |  | effect of the antibiotic alone on the multidrug-resistant clinical strain (S. aureus MRSA 9): did not affect
CNC(C)C1CCC(N)C(OC2C(N)CC(N)C(OC3OCC(C)(O)C(NC)C3O)C2O)O1 (centres unmarked) [gentamicin, reference compound] |  |  |  |  |  |  |  |  |  |  | effect of the antibiotic alone on the multidrug-resistant clinical strain (S. aureus MRSA 9): did not affect
COc1cc(Nc2c(O)cc(O)c3c(=O)c(O)c(-c4ccc(O)c(O)c4)oc23)cc(OC)c1 [compound 9, 2-(3,4-Dihydroxyphenyl)-8-(3,5-dimethoxyanilino)-3,5,7-trihydroxy-4H–1-benzopyran-4-one] | 5.7 ± 1 | 26.6 ± 0.4 | > 50 | > 50 | 56.9 ± 1.9 | 76 ± 3 | >200 | >200 µM | > 200 | > 200 | 
O=c1c(O)c(-c2ccc(O)c(O)c2)oc2c(Nc3ccccc3)c(O)cc(O)c12 [compound 7, 2-(3,4-Dihydroxyphenyl)-8-(anilino)-3,5,7-trihydroxy-4H–1-benzopyran-4-one] | 5.5 ± 0.4 | 34.4 ± 0.2 | 12.9 ± 0.2 | > 100 | 102 ± 1.5 | 115 ± 1.2 | >200 | 43.8 ± 1.6 µM | 32.7 ± 0.7 | 70 ± 2 | MIC, Gentamicin [1 mg/L] yes (MRSA 3596; with gentamicin 1 mg/L): > 200 µM; MIC (MRSA 3596; Staphylococcus aureus, 24 h, read-out: MIC, Gentamicin [1 mg/L] no, without gentamicin, Table S6): > 200 µM; effect (mode of action with gentamicin) (MRSA 1584; MRSA 1584): indifferent (> 1 to < 2 indicates indifference); MIC, Gentamicin [1 mg/L] yes (MRSA 1584; MRSA 1584 (aac(6')/aph(2')), with gentamicin 1 mg/L): 31.9 ± 2.5 µM (≈ 12.5 µg/mL); FIC (Fractional Inhibitory Concentration Index) (MRSA 1584; MRSA 1584, with gentamicin): 1.07 ± 0.13; MIC (MRSA 1584; Staphylococcus aureus, 24 h, read-out: MIC, Gentamicin [1 mg/L] no, MRSA 1584, without gentamicin): 29.9 ± 1.2 µM (≈ 11.8 µg/mL)
N#CC(C#N)=NNc1cccc(Cl)c1 [CCCP, carbonyl cyanide 3-chlorophenylhydrazone, reference compound] |  |  |  |  |  |  |  |  |  |  | efflux inhibition (ethidium bromide accumulation), in words [7]: increases the accumulation of ethidium bromide
COc1cccc2c1C(=O)c1c(O)c3c(c(O)c1C2=O)C[C@@](O)(C(=O)CO)C[C@@H]3O[C@H]1C[C@H](N)[C@H](O)[C@H](C)O1 [Doxorubicin, reference compound] |  |  |  |  |  |  |  |  |  |  | IC50 ([4]; listed as doxorubicin): < 1 µM; IC50 [4]: 0.42 ± 0.03 µM; IC50 ([5]; listed as doxorubicin): < 1 µM; IC50 [5]: 0.19 ± 0.01 µM
